From patent US20260022143A1, “Cyclic Peptide Inhibitors of IL-23” (JANSSEN PHARMACEUTICA NV, priority 2022, published 2026)
Structures can show the parent of a compound that is named as a salt. Starred links: 1 amine or outer side, 2 acyl side, 3 side chain; linkers in the order of their positions; H or OH if unused. Positions of bridges follow the written chain, without caps; N, C: chain ends. Non-standard residues stand in square brackets, D forms with d. Residues, ends and D or L forms follow the SMILES beside them. Groups on a side chain read outwards from the residue. *: point of attachment. X80 = COCC[N+](C)(C)CCCCc1cn(-c2ccc(C[C@H](N[*:1])C(=O)[*:2])cc2)nn1; X33 = C[N+](C)(C)CCCCc1cn(-c2ccc(C[C@H](N[*:1])C(=O)[*:2])cc2)nn1; Me3N+(CH2)2O(CH2)2O(CH2)2CO = C[N+](C)(C)CCOCCOCCC(=O)*; CH2CH2OCH2CH2OCH2CH2NMe3+ = C[N+](C)(C)CCOCCOCC*; NH(CH2CH2O)2CH2CH2NMe3+ = C[N+](C)(C)CCOCCOCCN*; Trp(7-Me) = Cc1cccc2c(C[C@H](N)C(=O)O)c[nH]c12; Hexanoyl(6-NMe3+) = C[N+](C)(C)CCCCCC(=O)*; Dab(NMeAc) = CC(=O)N(C)CC[C@H](N)C(=O)O; γGlu = O=C(O)[C@H](CCC(=O)[*:2])N[*:1]; 2Nal = N[C@@H](Cc1ccc2ccccc2c1)C(=O)O; AEF = NCCOc1ccc(C[C@H](N)C(=O)O)cc1; 3Pal = N[C@@H](Cc1cccnc1)C(=O)O; Myristoyl = CCCCCCCCCCCCCC(=O)*; Lys(Me) = CNCCCC[C@H](N)C(=O)O; Pen = CC(C)(S)[C@H](N)C(=O)O; X84 = CN(CCC[N+](C)(C)C)CC*; Thp = NC1(C(=O)O)CCOCC1; Dap = NC[C@H](N)C(=O)O; X3 = C[N+](C)(C)CCCCC*; AEEA = NCCOCCOCC(=O)O; Me2NCH2CH2 = CN(C)CC*; Tfa = O=C(C(F)(F)F)*; Sar = CNCC(=O)O

Test: Exposed Polar Surface Area (EPSA)
Format: physicochemical
Conditions: SFC on Chirex 3014 column; sample 1 mM DMSO stock; read-out: EPSA
Method in brief: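 Compounds, as 1 mM DMSO stock, were injected in duplicate onto an SFC Chirex 3014 column at 35 °C and eluted with a CO2/methanol (20 mM ammonium formate) gradient. EPSA values in Å^2 were derived from retention times using a linear fit to eight calibration standards, reinjected every 20 compounds.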

Row | EPSA [A^2] | Compound
1 | 159 | CC(=O)NCCCC[C@@H]1NC(=O)[C@H](Cc2c[nH]c3c(C)cccc23)NC(=O)[C@H]([C@@H](C)O)NC(=O)[C@H](CC(N)=O)NC(=O)[C@@H](NC(C)=O)C(C)(C)SSC(C)(C)[C@@H](C(=O)N[C@@H](Cc2ccc(OCCN)cc2)C(=O)N[C@@H](Cc2ccc3ccccc3c2)C(=O)NC2(C(=O)N[C@@H](CCC(=O)O)C(=O)N[C@@H](CC(N)=O)C(=O)N[C@@H](Cc3cccnc3)C(=O)N(C)CC(=O)NCCOCCOCC[N+](C)(C)C)CCOCC2)NC1=O [compound 134] (Ac-[Pen]NT[Trp(7-Me)]K(Ac)[Pen][AEF][2Nal][Thp]EN[3Pal][Sar]-{NH(CH2CH2O)2CH2CH2NMe3+}; disulfide 1-6)
2 | 157 | CC(=O)NCCCC[C@H](NC(=O)C1(NC(=O)[C@H](Cc2ccc3ccccc3c2)NC(=O)[C@H](Cc2ccc(OCCN)cc2)NC(=O)[C@H]2NC(=O)[C@H](CCN(C)C(C)=O)NC(=O)[C@H](Cc3c[nH]c4c(C)cccc34)NC(=O)[C@H]([C@@H](C)O)NC(=O)[C@H](CC(N)=O)NC(=O)[C@@H](NC(=O)C(F)(F)F)C(C)(C)SSC2(C)C)CCOCC1)C(=O)N[C@@H](CC(N)=O)C(=O)N[C@@H](Cc1cccnc1)C(=O)N(C)CC(N)=O [compound 70] (Tfa-[Pen]NT[Trp(7-Me)][Dab(NMeAc)][Pen][AEF][2Nal][Thp]K(Ac)N[3Pal][Sar]-NH2; disulfide 1-6)

Continued, molecule first:

Row | Compound | EPSA [A^2]
3 | CC(=O)N(C)CCCC[C@@H]1NC(=O)[C@H](Cc2c[nH]c3c(C)cccc23)NC(=O)[C@H]([C@@H](C)O)NC(=O)[C@H](CC(=O)N(C)C)NC(=O)[C@@H](NC(=O)CCOCCOCC[N+](C)(C)C)C(C)(C)SSC(C)(C)[C@@H](C(=O)N[C@@H](Cc2ccc(OCCN(C)CCC[N+](C)(C)C)cc2)C(=O)N[C@@H](Cc2ccc3ccccc3c2)C(=O)NC2(C(=O)N[C@@H](CCCCN(C)C(C)=O)C(=O)N[C@@H](CC(N)=O)C(=O)N[C@@H](Cc3cccnc3)C(=O)N(C)CC(=O)N(C)C)CCOCC2)NC1=O [compound 234, cPEG3aCO-Pen(3)-N(N(Me)2)-T-7MeW-K(NMeAc)-Pen(3)-AEF(MePrpa)-2Nal-THP-K(NMeAc)-N-3Pya-Sar-CON(Me)2] ({Me3N+(CH2)2O(CH2)2O(CH2)2CO}-[Pen]D(NMe2)T[Trp(7-Me)][Lys(Me)](Ac)[Pen]Y(X84)[2Nal][Thp][Lys(Me)](Ac)N[3Pal][Sar]-NMe2; disulfide 1-6) | 141
4 | COCC[N+](C)(C)CCCCc1cn(-c2ccc(C[C@H](NC(=O)[C@H]3NC(=O)[C@H](CCCCN(C)C(C)=O)NC(=O)[C@H](Cc4c[nH]c5c(C)cccc45)NC(=O)[C@H]([C@@H](C)O)NC(=O)[C@H](CC(=O)N(C)C)NC(=O)[C@@H](NC(=O)CCOCCOCC[N+](C)(C)C)C(C)(C)SSC3(C)C)C(=O)N[C@@H](Cc3ccc4ccccc4c3)C(=O)NC3(C(=O)N[C@@H](CCCCN(C)C(C)=O)C(=O)N[C@@H](CC(N)=O)C(=O)N[C@@H](Cc4cccnc4)C(=O)N(C)CC(=O)N(C)C)CCOCC3)cc2)nn1 [compound 337, cPEG3aCO-Pen(3)-N(N(Me)2)-T-7MeW-K(NMeAc)-Pen(3)-F(4TzlDMA4mPEG)-2Nal-THP-K(NMeAc)-N-3Pya-Sar-CON(Me)2] ({Me3N+(CH2)2O(CH2)2O(CH2)2CO}-[Pen]D(NMe2)T[Trp(7-Me)][Lys(Me)](Ac)[Pen][X80][2Nal][Thp][Lys(Me)](Ac)N[3Pal][Sar]-NMe2; disulfide 1-6) | 152
5 | CC(=O)N(C)CCCC[C@@H]1NC(=O)[C@H](Cc2c[nH]c3c(C)cccc23)NC(=O)[C@H]([C@@H](C)O)NC(=O)[C@H](CC(=O)N(C)C)NC(=O)[C@@H](NC(=O)CCOCCOCC[N+](C)(C)C)C(C)(C)SSC(C)(C)[C@@H](C(=O)N[C@@H](Cc2ccc(-n3cc(CCCC[N+](C)(C)C)nn3)cc2)C(=O)N[C@@H](Cc2ccc3ccccc3c2)C(=O)NC2(C(=O)N[C@@H](CCCCN(C)C(C)=O)C(=O)N[C@@H](CC(N)=O)C(=O)N[C@@H](Cc3cccnc3)C(=O)N(C)CC(=O)N(C)C)CCOCC2)NC1=O [compound 302, cPEG3aCO-Pen(3)-N(N(Me)2)-T-7MeW-K(NMeAc)-Pen(3)-F(4TzlTMA4)-] ({Me3N+(CH2)2O(CH2)2O(CH2)2CO}-[Pen]D(NMe2)T[Trp(7-Me)][Lys(Me)](Ac)[Pen][X33][2Nal][Thp][Lys(Me)](Ac)N[3Pal][Sar]-NMe2; disulfide 1-6) | 155
6 | CC(=O)NC[C@H](NC(=O)C1(NC(=O)[C@H](Cc2ccc3ccccc3c2)NC(=O)[C@H](Cc2ccc(OCCN(C)C)cc2)NC(=O)[C@H]2NC(=O)[C@H](CCCCN(C)C(C)=O)NC(=O)[C@H](Cc3c[nH]c4c(C)cccc34)NC(=O)[C@H]([C@@H](C)O)NC(=O)[C@H](CC(=O)N(C)C)NC(=O)[C@@H](NC(=O)CCCCC[N+](C)(C)C)C(C)(C)SSC2(C)C)CCOCC1)C(=O)N[C@@H](CC(N)=O)C(=O)N[C@@H](Cc1cccnc1)C(=O)N(C)CC(=O)N(C)C [compound 133, 5cpaCO-Pen(3)-N(N(Me)2)-T-7MeW-K(NMeAc)-Pen(3)-AEF(N(Me)2)-2Nal-THP-Dap(Ac)-N-3Pya-Sar-CON(Me)2] ({Hexanoyl(6-NMe3+)}-[Pen]D(NMe2)T[Trp(7-Me)][Lys(Me)](Ac)[Pen]Y(Me2NCH2CH2)[2Nal][Thp][Dap](Ac)N[3Pal][Sar]-NMe2; disulfide 1-6 (inferred)) | 151
7 | CCCCCCCCCCCCCC(=O)N[C@@H](CCC(=O)NCCOCCOCC(=O)NCCOCCOCC(=O)NCCCC[C@@H]1NC(=O)[C@@H](NC(=O)CCOCCOCC[N+](C)(C)C)C(C)(C)SSC(C)(C)[C@@H](C(=O)N[C@@H](Cc2ccc(OCCCCC[N+](C)(C)C)cc2)C(=O)N[C@@H](Cc2ccc3ccccc3c2)C(=O)NC2(C(=O)N[C@@H](CCCCNC(=O)COCCOCCNC(=O)COCCOCCNC(=O)CC[C@H](NC(=O)CCCCCCCCCCCCC)C(=O)O)C(=O)N[C@@H](CC(N)=O)C(=O)N[C@@H](Cc3cccnc3)C(=O)N(C)CC(=O)N(C)C)CCOCC2)NC(=O)[C@H](CCCCN(C)C(C)=O)NC(=O)[C@H](Cc2c[nH]c3c(C)cccc23)NC(=O)[C@H]([C@@H](C)O)NC1=O)C(=O)O [compound 398, cPEG3aCO-Pen(3)-K(PEG2PEG2gEC14)-T-7MeW-K(NMeAc)-Pen(3)-TMAPF-2Nal-THP-K(PEG2PEG2gEC14)-N-3Pya-Sar-CON(Me)2] ({Me3N+(CH2)2O(CH2)2O(CH2)2CO}-[Pen]K([AEEA-AEEA-γGlu-Myristoyl])T[Trp(7-Me)][Lys(Me)](Ac)[Pen]Y(X3)[2Nal][Thp]K([AEEA-AEEA-γGlu-Myristoyl])N[3Pal][Sar]-NMe2; disulfide 1-6) | 168
8 | CC(=O)NCCCC[C@@H]1NC(=O)[C@H](Cc2c[nH]c3c(C)cccc23)NC(=O)[C@H]([C@@H](C)O)NC(=O)[C@H](CC(=O)N(C)C)NC(=O)[C@@H](NC(=O)CCOCCOCC[N+](C)(C)C)C(C)(C)SSC(C)(C)[C@@H](C(=O)N[C@@H](Cc2ccc(OCCOCCOCC[N+](C)(C)C)cc2)C(=O)N[C@@H](Cc2ccc3ccccc3c2)C(=O)NC2(C(=O)N[C@@H](CCCCN(C)C(C)=O)C(=O)N[C@@H](CC(N)=O)C(=O)N[C@@H](Cc3cccnc3)C(=O)N(C)CC(=O)N(C)C)CCOCC2)NC1=O [compound 243, cPEG3aCO-Pen(3)-N(N(Me)2)-T-7MeW-K(Ac)-Pen(3)-APEG3F-2Nal-THP-K(NMeAc)-N-3Pya-Sar-CON(Me)2] ({Me3N+(CH2)2O(CH2)2O(CH2)2CO}-[Pen]D(NMe2)T[Trp(7-Me)]K(Ac)[Pen]Y(CH2CH2OCH2CH2OCH2CH2NMe3+)[2Nal][Thp][Lys(Me)](Ac)N[3Pal][Sar]-NMe2; disulfide 1-6) | 142
